According to ChEMBL document CHEMBL1201862, “PubChem BioAssay data set” (2004):
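Tested at 5 concentrations; 48 h exposure; 96-well plates; endpoints linearly interpolated, else capped at highest concentration. Abbreviation: GI50, concentration required for 50% inhibition of growth.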 Active and inactive are the calls of the source. No stated cut-off is given here; in the data, active = GI50 up to about 1.1 µM and inactive = higher.

Experiments:
Assay in all cases: NCI anticancer screen, dose series, 48 h
A498 = system: A498
EKVX = system: EKVX
HOP-92 = system: HOP-92
HT-29 = system: HT-29
Hs-578T = system: Hs-578T
K562 = system: K562
KM12 = system: KM12
MCF7 = system: MCF7
MDA-MB-231 = system: MDA-MB-231
MDA-MB-435 = system: MDA-MB-435
MOLT-4 = system: MOLT-4
Malme-3M = system: Malme-3M
NCI-H226 = system: NCI-H226
OVCAR-5 = system: OVCAR-5
SNB-75 = system: SNB-75
SW-620 = system: SW-620
U-251 = system: U-251
UACC-257 = system: UACC-257
UACC-62 = system: UACC-62
UO-31 = system: UO-31

| Compound | GI50 (A498) | GI50 (EKVX) | GI50 (HOP-92) | GI50 (HT-29) | GI50 (Hs-578T) | GI50 (K562) | GI50 (KM12) | GI50 (MCF7) | GI50 (MDA-MB-231) | GI50 (MDA-MB-435) | GI50 (MOLT-4) | GI50 (Malme-3M) | GI50 (NCI-H226) | GI50 (OVCAR-5) | GI50 (SNB-75) | GI50 (SW-620) | GI50 (U-251) | GI50 (UACC-257) | GI50 (UACC-62) | GI50 (UO-31) |
| --- | --- | --- | --- | --- | --- | --- | --- | --- | --- | --- | --- | --- | --- | --- | --- | --- | --- | --- | --- | --- |
| O=C1/C(=C/c2ccccc2)CN(C(=O)CCN2CCOCC2)C/C1=C\c1ccccc1 | 12.9 µM (inactive) | 13.6 µM (inactive) | 9.79 µM (inactive) | 1.95 µM (inactive) | 2.6 µM (inactive) | 0.388 µM (active) | 1.6 µM (inactive) | 1.95 µM (inactive) | 3.47 µM (inactive) | 1.9 µM (inactive) | 2.58 µM (inactive) | 2.49 µM (inactive) | 5.89 µM (inactive) | 7.36 µM (inactive) | 7.18 µM (inactive) | 0.459 µM (active) | 1.79 µM (inactive) | 2.13 µM (inactive) | 1.88 µM (inactive) | 8.97 µM (inactive) |
| N#Cc1nc(C#N)c(N)[nH]1 | > 100 µM (inactive) | > 100 µM (inactive) | > 100 µM (inactive) | > 100 µM (inactive) | > 100 µM (inactive) | > 100 µM (inactive) | > 100 µM (inactive) | > 100 µM (inactive) | > 100 µM (inactive) | > 100 µM (inactive) | > 100 µM (inactive) | > 100 µM (inactive) | > 100 µM (inactive) | > 100 µM (inactive) | > 100 µM (inactive) | > 100 µM (inactive) | > 100 µM (inactive) | > 100 µM (inactive) | > 100 µM (inactive) | > 100 µM (inactive) |
| CCN(CC)C(=S)N/N=C(/C)c1cccc(/C(C)=N\NC(=S)N(CC)CC)n1 | 1.89 µM (inactive) | 2.64 µM (inactive) | 1.46 µM (inactive) | 3.52 µM (inactive) | 5.64 µM (inactive) | 2.67 µM (inactive) | 0.26 µM (active) | 2.04 µM (inactive) | 1.76 µM (inactive) | 3.35 µM (inactive) | 1.66 µM (inactive) | 1.45 µM (inactive) | 1.56 µM (inactive) | 3.31 µM (inactive) | 3.21 µM (inactive) | 0.951 µM (active) | 2.34 µM (inactive) | 2.2 µM (inactive) | 2.62 µM (inactive) | 1.95 µM (inactive) |
| OC1[C@H](O)CN(OCc2ccccc2)C[C@@H]1O (stereo partly drawn) | > 100 µM (inactive) | > 100 µM (inactive) | > 100 µM (inactive) | > 100 µM (inactive) | > 100 µM (inactive) | > 100 µM (inactive) | > 100 µM (inactive) | > 100 µM (inactive) | > 100 µM (inactive) | > 100 µM (inactive) | > 100 µM (inactive) | > 100 µM (inactive) | > 100 µM (inactive) | > 100 µM (inactive) | > 100 µM (inactive) | > 100 µM (inactive) | > 100 µM (inactive) | > 100 µM (inactive) | > 100 µM (inactive) | > 100 µM (inactive) |
| O=C(NN1CCCCC1)c1cc2cc(CCl)ccc2oc1=O | 75.2 µM (inactive) | 14.2 µM (inactive) | 10.4 µM (inactive) | 14.9 µM (inactive) | 16.3 µM (inactive) | 16.7 µM (inactive) | 22.1 µM (inactive) | 38.7 µM (inactive) | 20.6 µM (inactive) | 18.5 µM (inactive) | 22.2 µM (inactive) | 10.5 µM (inactive) | 20.6 µM (inactive) | 17.2 µM (inactive) | 18.6 µM (inactive) | 23.1 µM (inactive) | 16.9 µM (inactive) | 21.6 µM (inactive) | 27.7 µM (inactive) | 18.5 µM (inactive) |
| CCN(CC)CCn1ccc(=O)c2cc3c(=O)ccn(CCN(CC)CC)c3c(C)c21 | 15.5 µM (inactive) | 5.77 µM (inactive) | 7.69 µM (inactive) | 2.81 µM (inactive) | 4.03 µM (inactive) | 2.77 µM (inactive) | 0.993 µM (active) | 20.8 µM (inactive) | 5.27 µM (inactive) | 4.65 µM (inactive) | 0.525 µM (active) | 15 µM (inactive) | 10.9 µM (inactive) | 14.1 µM (inactive) | 9.91 µM (inactive) | 1.53 µM (inactive) | 5.89 µM (inactive) | 16.7 µM (inactive) | 15.4 µM (inactive) | 5.07 µM (inactive) |
| CC(=O)C1=C(C)N2C(=NC3=C(CCc4ccccc43)C2c2ccc(Cl)cc2)S1 (stereo not drawn) | 20.7 µM (inactive) | 46.8 µM (inactive) | 31 µM (inactive) | 7.45 µM (inactive) | > 64 µM (inactive) | 2.05 µM (inactive) | 33.3 µM (inactive) | 20.5 µM (inactive) | > 100 µM (inactive) | > 43.1 µM (inactive) | 3.8 µM (inactive) | 48.5 µM (inactive) | > 100 µM (inactive) | > 100 µM (inactive) | > 32.5 µM (inactive) | > 33.3 µM (inactive) | > 67.5 µM (inactive) | > 78.5 µM (inactive) | 58.7 µM (inactive) | > 53.7 µM (inactive) |
| COC(=O)C1=NN2c3ccccc3CN([C@@H](C)c3ccccc3)C(=O)[C@@H]2[C@H]1c1ccccc1 | > 100 µM (inactive) | > 100 µM (inactive) | > 100 µM (inactive) | > 100 µM (inactive) | > 100 µM (inactive) | 13.3 µM (inactive) | > 100 µM (inactive) | > 100 µM (inactive) | > 100 µM (inactive) | > 100 µM (inactive) | 5.66 µM (inactive) | > 100 µM (inactive) | > 100 µM (inactive) | > 100 µM (inactive) | 30.3 µM (inactive) | > 100 µM (inactive) | > 100 µM (inactive) | > 100 µM (inactive) | > 100 µM (inactive) | > 100 µM (inactive) |
| O=C(c1ccc([N+](=O)[O-])cc1)N1CCCC1 | > 100 µM (inactive) | > 100 µM (inactive) | > 100 µM (inactive) | > 100 µM (inactive) | > 100 µM (inactive) | > 100 µM (inactive) | > 100 µM (inactive) | > 100 µM (inactive) | > 100 µM (inactive) | > 100 µM (inactive) | > 100 µM (inactive) | > 100 µM (inactive) | > 100 µM (inactive) | > 100 µM (inactive) | > 100 µM (inactive) | > 100 µM (inactive) | > 100 µM (inactive) | > 100 µM (inactive) | 66.1 µM (inactive) | > 100 µM (inactive) |
| CCOC1(OCC)C2C=CC1C(COS(=O)(=O)c1ccc(C)cc1)C2COS(=O)(=O)c1ccc(C)cc1 (stereo not drawn) | 24 µM (inactive) | 22.4 µM (inactive) | 12.8 µM (inactive) | 25.6 µM (inactive) | 37.3 µM (inactive) | 20.5 µM (inactive) | 31.1 µM (inactive) | 30.2 µM (inactive) | 22.1 µM (inactive) | 29 µM (inactive) | 11.9 µM (inactive) | 24.4 µM (inactive) | 24.3 µM (inactive) | 49.4 µM (inactive) | 24.8 µM (inactive) | 36.3 µM (inactive) | 29.9 µM (inactive) | 25.4 µM (inactive) | 20.4 µM (inactive) | 22.8 µM (inactive) |
| N#CC(NCCO)=C1C(=O)c2ccccc2C1=O | > 100 µM (inactive) | > 100 µM (inactive) | > 100 µM (inactive) | > 100 µM (inactive) | > 100 µM (inactive) | > 100 µM (inactive) | > 100 µM (inactive) | > 100 µM (inactive) | > 100 µM (inactive) | > 100 µM (inactive) | > 100 µM (inactive) | > 100 µM (inactive) | > 100 µM (inactive) | > 100 µM (inactive) | > 100 µM (inactive) | > 100 µM (inactive) | > 100 µM (inactive) | > 100 µM (inactive) | > 100 µM (inactive) | > 100 µM (inactive) |
| N=C(N)N/N=C/c1c(-c2ccc([N+](=O)[O-])cc2)nc2sccn12 | 1.73 µM (inactive) | 1.8 µM (inactive) | 1.9 µM (inactive) | 1.53 µM (inactive) | 1.89 µM (inactive) | 0.973 µM (active) | 0.759 µM (active) | 1.42 µM (inactive) | 1.68 µM (inactive) | 1.5 µM (inactive) | 1.53 µM (inactive) | 1.95 µM (inactive) | 1.75 µM (inactive) | 1.7 µM (inactive) | 1.8 µM (inactive) | 0.706 µM (active) | 1.58 µM (inactive) | 1.93 µM (inactive) | 1.87 µM (inactive) | 2.34 µM (inactive) |
| C=C(CN(C)C)C(=O)c1ccccc1[N+](=O)[O-] | > 57.8 µM (inactive) | > 43.5 µM (inactive) | 9.14 µM (inactive) | 19.2 µM (inactive) | 22.9 µM (inactive) | 3.39 µM (inactive) | 31.1 µM (inactive) | 14.3 µM (inactive) | 18.2 µM (inactive) | 16.1 µM (inactive) | – | 7.76 µM (inactive) | 30.1 µM (inactive) | 15.8 µM (inactive) | 34.8 µM (inactive) | 11.3 µM (inactive) | 32.2 µM (inactive) | 15.8 µM (inactive) | 17.9 µM (inactive) | 17.7 µM (inactive) |
| CN1CCN(c2ccc3[nH]c(-c4ccc5[nH]c(-c6ccc(N(C)CCCl)cc6)nc5c4)nc3c2)CC1 | 2.56 µM (inactive) | – | 0.222 µM (active) | 0.217 µM (active) | 0.206 µM (active) | 0.191 µM (active) | 0.811 µM (active) | < 0.01 µM (active) | 9.64 µM (inactive) | 0.144 µM (active) | 0.0127 µM (active) | 0.208 µM (active) | 0.705 µM (active) | 2.45 µM (inactive) | 0.152 µM (active) | 0.14 µM (active) | 0.0429 µM (active) | 1.66 µM (inactive) | 0.15 µM (active) | 18.7 µM (inactive) |
